# Laboratory results from patent publication US6737383B1, “Herbicidal oxadiazolidines” (priority 1999, dated 2004).
# How the values were obtained:
# cocklebur = assay: Test B pre/postemergence cocklebur; assay type: in vivo, Xanthium strumarium
# Method in brief: (§1)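 Response is a visual 0-to-10 score relative to untreated plants, where 0 means no effect and 10 means complete control, taken twelve to sixteen days after application. Treatments went onto soil at planting and onto foliage of 1- to 4-leaf plants, using a surfactant-containing non-phytotoxic solvent.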
# bamyardgrass = assay: Test B flood test barnyardgrass; assay type: in vivo, Echinochloa crus-galli
# Method in brief: (§2)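 Flood test on plants grown to the 2-leaf stage; treated plants kept in greenhouse twelve to sixteen days, then visually rated against controls on a 0 (no effect) to 10 (complete control) scale.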
# smallflower flatsedge = assay: Test B flood test smallflower flatsedge; assay type: in vivo, Cyperus difformis
# Method in brief: as §2
# giant foxtail = assay: Test B pre/postemergence giant foxtail; assay type: in vivo, Setaria faberii
# Method in brief: as §1
# rice = assay: Test B flood test rice; assay type: in vivo, Oryza sativa
# Method in brief: as §2
# crabgrass = assay: Test B pre/postemergence crabgrass; assay type: in vivo, Digitaria sanguinalis
# Method in brief: as §1
# duck salad = assay: Test B flood test duck salad; assay type: in vivo, Heteranthera limosa
# Method in brief: as §2
# surinam grass = assay: Test B pre/postemergence surinam grass; assay type: in vivo, Brachiaria decumbens
# Method in brief: as §1
# corn = assay: Test B pre/postemergence corn; assay type: in vivo, Zea mays
# Method in brief: as §1
# soybean = assay: Test B pre/postemergence soybean; assay type: in vivo, Glycine max
# Method in brief: as §1
# sugar beet = assay: Test B pre/postemergence sugar beet; assay type: in vivo, Beta vulgaris
# Method in brief: as §1
# pigweed = assay: Test B pre/postemergence pigweed; assay type: in vivo, Amaranthus retroflexus
# Method in brief: as §1
# wheat = assay: Test B pre/postemergence wheat; assay type: in vivo, Triticum aestivum
# Method in brief: as §1
# blackgrass = assay: Test B pre/postemergence blackgrass; assay type: in vivo, Alopecurus myosuroides
# Method in brief: as §1
# purple nutsedge = assay: Test B pre/postemergence purple nutsedge; assay type: in vivo, Cyperus rotundus
# Method in brief: as §1
# rape = assay: Test B pre/postemergence rape; assay type: in vivo, Brassica napus
# Method in brief: as §1
# [1] = Preemergence, Rate 62 g/ha, scale of 0 to 10 where 0 is no effect and 10 is complete control
# [2] = Preemergence, Rate 250 g/ha, scale 0 to 10, 0 is no effect, 10 is complete control
# [3] = Preemergence, Rate 500 g/ha, scale of 0 to 10 where 0 is no effect and 10 is complete control
# [4] = Rate 62 g/ha, Postemergence, scale of 0 to 10 where 0 is no effect and 10 is complete control
# [5] = Rate 125 g/ha, Postemergence, scale 0 to 10
# [6] = Rate 125 g/ha, Preemergence, scale of 0 to 10 where 0 is no effect and 10 is complete control
# [7] = Rate 500 g/ha, Postemergence, scale 0 to 10
# [8] = Rate 62 g/ha, headed Pre-emergence (flood test species), scale 0 to 10 (0 no effect, 10 complete control)
# [9] = Rate 125 g/ha, Pre-emergence, flood test species, scale 0 to 10 where 0 is no effect and 10 is complete control
# [10] = Rate 250 g/ha, Pre-emergence, flood-test species, scale 0 to 10, 0 is no effect, 10 is complete control
# [11] = Rate 500 g/ha, Pre-emergence, flood test species, scale 0 to 10 (0 no effect, 10 complete control)
compound,measurement,setting,value
CC(C)N(C(=O)n1oc(=O)n(CC=Cc2ccccc2)c1=O)c1ccc(F)cc1 [Compound 210],Cocklebur plant response rating,cocklebur; [1],0
same,Cocklebur plant response rating,cocklebur; [2],0
same,"Plant response rating, Cocklebur",cocklebur; [3],0
same,Cocklebur plant response rating,cocklebur; [4],0
same,Cocklebur plant response rating,cocklebur; [5],0
same,Cocklebur plant response rating,cocklebur; [6],0
same,"Plant response rating (0 to 10; 0 is no effect, 10 is complete control), Cocklebur","cocklebur; Rate 250 g/ha, Postemergence",0
same,Cocklebur plant response rating,cocklebur; [7],2
same,Barnyardgrass plant response rating,bamyardgrass; [8],0
same,Barnyardgrass plant response rating,bamyardgrass; [9],0
same,Barnyardgrass plant response rating,bamyardgrass; [10],0
same,Barnyardgrass plant response rating,bamyardgrass; [11],0
same,S. Flatsedge plant response rating,smallflower flatsedge; [8],0
same,S. Flatsedge plant response rating,smallflower flatsedge; [9],0
same,S. Flatsedge plant response rating,smallflower flatsedge; [10],0
same,S. Flatsedge plant response rating,smallflower flatsedge; [11],0
same,Giant foxtail plant response rating,giant foxtail; [1],0
same,Giant foxtail plant response rating,giant foxtail; [2],3
same,"Plant response rating, Giant foxtail",giant foxtail; [3],5
same,Giant foxtail plant response rating,giant foxtail; [4],0
same,Giant foxtail plant response rating,giant foxtail; [5],0
same,Giant foxtail plant response rating,giant foxtail; [6],0
same,"Plant response rating (0 to 10; 0 is no effect, 10 is complete control), Giant foxtail","giant foxtail; Rate 250 g/ha, Postemergence",0
same,Giant foxtail plant response rating,giant foxtail; [7],0
same,Rice plant response rating,rice; [8],0
same,Rice plant response rating,rice; [9],0
same,Rice plant response rating,rice; [10],0
same,Rice plant response rating,rice; [11],0
same,Crabgrass plant response rating,crabgrass; [1],0
same,Crabgrass plant response rating,crabgrass; [2],3
same,"Plant response rating, Crabgrass",crabgrass; [3],8
same,Crabgrass plant response rating,crabgrass; [4],0
same,Crabgrass plant response rating,crabgrass; [5],0
same,Crabgrass plant response rating,crabgrass; [6],0
same,"Plant response rating (0 to 10; 0 is no effect, 10 is complete control), Crabgrass","crabgrass; Rate 250 g/ha, Postemergence",0
same,Crabgrass plant response rating,crabgrass; [7],0
same,Ducksalad plant response rating,duck salad; [8],0
same,Ducksalad plant response rating,duck salad; [9],0
same,Ducksalad plant response rating,duck salad; [10],0
same,Ducksalad plant response rating,duck salad; [11],0
same,B. signalgrass plant response rating,surinam grass; [1],0
same,B. signalgrass plant response rating,surinam grass; [2],0
same,"Plant response rating, B. signalgrass",surinam grass; [3],0
same,B. signalgrass plant response rating,surinam grass; [4],0
same,B. signalgrass plant response rating,"surinam grass; Rate 125 g/ha, Postemergence, scale 0 (no effect) to 10 (complete control)",0
same,B. signalgrass plant response rating,surinam grass; [6],0
same,"Plant response rating (0 to 10; 0 is no effect, 10 is complete control), B. signalgrass","surinam grass; Rate 250 g/ha, Postemergence",0
same,B. signalgrass plant response rating,"surinam grass; Rate 500 g/ha, Postemergence, scale 0 to 10, 0 no effect, 10 complete control",0
same,Corn plant response rating,corn; [1],0
same,Corn plant response rating,corn; [2],0
same,"Plant response rating, Corn",corn; [3],0
same,Corn plant response rating,corn; [4],0
same,Corn plant response rating,corn; [5],0
same,Corn plant response rating,corn; [6],0
same,"Plant response rating (0 to 10; 0 is no effect, 10 is complete control), Corn","corn; Rate 250 g/ha, Postemergence",0
same,Corn plant response rating,corn; [7],0
same,Soybean plant response rating,soybean; [1],0
same,Soybean plant response rating,soybean; [2],0
same,"Plant response rating, Soybean",soybean; [3],0
same,Soybean plant response rating,soybean; [4],1
same,Soybean plant response rating,soybean; [5],1
same,Soybean plant response rating,soybean; [6],0
same,"Plant response rating (0 to 10; 0 is no effect, 10 is complete control), Soybean","soybean; Rate 250 g/ha, Postemergence",1
same,Soybean plant response rating,soybean; [7],3
same,Sugarbeets plant response rating,sugar beet; [1],0
same,Sugarbeets plant response rating,sugar beet; [2],0
same,"Plant response rating, Sugarbeets",sugar beet; [3],3
same,Sugarbeets plant response rating,sugar beet; [4],0
same,Sugarbeets plant response rating,sugar beet; [5],0
same,Sugarbeets plant response rating,sugar beet; [6],0
same,"Plant response rating (0 to 10; 0 is no effect, 10 is complete control), Sugarbeets","sugar beet; Rate 250 g/ha, Postemergence",0
same,Sugarbeets plant response rating,sugar beet; [7],4
same,Redroot pigweed plant response rating,pigweed; [1],0
same,Redroot pigweed plant response rating,pigweed; [2],2
same,"Plant response rating, Redroot pigweed",pigweed; [3],8
same,Redroot pigweed plant response rating,pigweed; [4],0
same,Redroot pigweed plant response rating,pigweed; [5],0
same,Redroot pigweed plant response rating,pigweed; [6],0
same,"Plant response rating (0 to 10; 0 is no effect, 10 is complete control), Redroot pigweed","pigweed; Rate 250 g/ha, Postemergence",2
same,Redroot pigweed plant response rating,pigweed; [7],6
same,Wheat plant response rating,wheat; [1],0
same,Wheat plant response rating,wheat; [2],0
same,"Plant response rating, Wheat",wheat; [3],0
same,Wheat plant response rating,wheat; [4],0
same,Wheat plant response rating,wheat; [5],0
same,Wheat plant response rating,wheat; [6],0
same,"Plant response rating (0 to 10; 0 is no effect, 10 is complete control), Wheat","wheat; Rate 250 g/ha, Postemergence",0
same,Blackgrass plant response rating,blackgrass; [1],0
same,Blackgrass plant response rating,blackgrass; [2],0
same,"Plant response rating, Blackgrass",blackgrass; [3],4
same,Blackgrass plant response rating,blackgrass; [4],0
same,Blackgrass plant response rating,blackgrass; [5],0
same,Blackgrass plant response rating,blackgrass; [6],0
same,"Plant response rating (0 to 10; 0 is no effect, 10 is complete control), Blackgrass","blackgrass; Rate 250 g/ha, Postemergence",0
same,Blackgrass plant response rating,blackgrass; [7],2
same,Nutsedge plant response rating,purple nutsedge; [1],0
same,Nutsedge plant response rating,purple nutsedge; [2],0
same,"Plant response rating, Nutsedge",purple nutsedge; [3],0
same,Nutsedge plant response rating,purple nutsedge; [4],0
same,Nutsedge plant response rating,purple nutsedge; [5],0
same,Nutsedge plant response rating,purple nutsedge; [6],0
same,"Plant response rating (0 to 10; 0 is no effect, 10 is complete control), Nutsedge","purple nutsedge; Rate 250 g/ha, Postemergence",0
same,Nutsedge plant response rating,purple nutsedge; [7],0
same,Rape plant response rating,rape; [1],0
same,Rape plant response rating,rape; [2],0
same,"Plant response rating, Rape",rape; [3],3
same,Rape plant response rating,rape; [4],0
same,Rape plant response rating,rape; [5],0
same,Rape plant response rating,rape; [6],0
same,"Plant response rating (0 to 10; 0 is no effect, 10 is complete control), Rape","rape; Rate 250 g/ha, Postemergence",0
same,Rape plant response rating,rape; [7],0
